The source of these data is patent EP4653017A1, “ANTIBODY-DRUG CONJUGATE AND USE THEREOF” (Tyligand Bioscience (Shanghai) Limited, priority 2023, dated 2024).

Test [1] concerns human gastric cancer NCI-N87 cells. In words: Inhibition of NCI-N87 cell proliferation (CTG assay). The test is classed as cell-based. As for the experimental part: NCI-N87 cells (Cell Bank of Chinese Academy of Sciences, Cat. No. #TCHu130) were cultured at 37°C, 5% CO2, 95% humidity in RPMI 1640 + 10% FBS (ExCell Bio, Cat. No. #FND500), the cells in logarithmic growth phase were harvested and counted, and cell viability was measured using Countstar automated cell counter based on classical trypan blue staining principle to ensure that the cell viability was above 90%. The cell concentration was adjusted, 135 µL of cell suspension was added into 96 well clear flat bottom black wall plate (Corning, Cat. No. #3904), 2000/well, and the cells was incubated in 96 well plate at 37°C and 5% CO2.
The cells in the 96 well plates that had been dosed were incubated at 37°C, 5% CO2 for 5 days before performing CTG assay. the plate was equilibrated to room temperature for 30 min and CTG Reagent (CellTiter-Glo® Luminescent Cell Viability Assay (Promega, Cat. No. #G7573) was melt, 50 µL of CTG Solution was added to each well, and shaked on an orbital shaker for 2 min to lyse the cells. The plate was left at room temperature for 10 min to stabilize the cold light signal and the cold light value was read (EnVision® Multifunctional Plate Reader, PerkinElmer#2105). [formula]
GraphPad Prism software was used to analyze the data, and Dose-response-inhibition equation was used to fit the data to obtain the dose-response curve from which IC50 value was calculated. […]

The subject of another test is CT26 cells. Nature of the test: CT26 syngeneic mouse bilateral transplanted tumor model. It counts as in vivo, BALB/c mice. As to conditions: left (untreated) tumor; 50 µg compound/mouse (2.5 mg/kg) intratumorally into right flank on days 0 and 4; day 13 after treatment. As for the experimental part:
When tumors grew to an average volume of 100 mm^3, treatments were randomized and started based on tumor size and mouse body weight. The first day of dosing was Day 0. Two doses were administered, 50 µg compound/mouse (i.e., 2.5 mg/kg) was injected intratumorally into the right flank on days 0 and 4, and the same volume of PBS (Hyclone Company, Cat. No. #SH30258.01) was used as a control. The left tumor was left untreated. Control mice were sacrificed after 13 days of dosing and treated mice were sacrificed 21 days later. During the experiment, the tumor volume and body weight were measured three times a week on the left and right sides, and the tumor volume was calculated as V = D × d × d/2 (wherein D represents the long diameter of the tumor and d represents the short diameter of the tumor).

Another test concerns A375. In words: Inhibition of tumor cell line proliferation (Table 3), A375. The test is classed as cell-based. To be noted: A-375; A375, Human melanoma cells.
A further test relates to B16F10. In words: Inhibition of tumor cell line proliferation (Table 3), B16F10. It counts as cell-based. As to conditions: B16-F10; B16F10, Mouse melanoma cells.
A further test relates to Daudi. Nature of the test: Inhibition of tumor cell line proliferation (Table 3), Daudi. The test is classed as cell-based. As to conditions: Human Burkitt's lymphoma cells.
In the next test the test system is A20. In words: Inhibition of tumor cell line proliferation (Table 3), A20. The test is classed as cell-based. To be noted: A20, Mouse B lymphoma cells.
The next test relates to FaDu. In words: Inhibition of tumor cell line proliferation (Table 3), FaDu. As to conditions: Human pharyngeal squamous carcinoma cell. It counts as cell-based.
Another test has as its system MC38. Nature of the test: Inhibition of tumor cell line proliferation (Table 3), MC38. To be noted: MC-38; MC38, Mouse colon cancer cells. It counts as cell-based.
In test [2] the test system is human ovarian cancer SK-OV-3. Nature of the test: SK-OV-3 subcutaneous xenograft model, Example 7 (ADC-1, ADC-2). It counts as in vivo, BALB/c Nude mice. As to conditions: 0.1 mg/kg; for Tumor growth inhibition (TGI) / Rate of complete tumor regression (TV = 0 mm^3): Day 21; for Rate of complete tumor regression (TV = 0 mm^3): 5 mice. As for the experimental part:
0.1 mL (1×10^7) of human ovarian cancer SK-OV-3 cells (purchased from ATCC, Cat#HTB-77) (PBS: matrigel volume ratio of 1:1) was subcutaneously inoculated into the right posterior back of each mouse (BALB/c Nude mice, 6-8 weeks old, female, Jiangsu GemPharmatech Co., Ltd.). When the mean tumor volume reached approximately 150 mm^3, the mice were randomly divided into 9 experimental groups, with 5 mice in each group. […] Group 9 was received intratumoral injection of CDN-3 0.1 mg/kg on Days 0, 4, and 7 of the study for a total of 3 drug doses (see Table 4 for animal grouping). The vehicle was a PBS buffer. Tumor volume and body weight were measured twice weekly during the experimental period, and data was recorded. Tumor volume was calculated according to the formula in Example 3.

The next test has as its system H22. Nature of the test: Inhibition of tumor cell line proliferation (Table 3), H22. It counts as cell-based. As to conditions: H22, Mouse hepatoma cells.
A further test has as its system THP-1 cells. In words: Activation of IFN-β secretion by THP-1 cells (IFN-beta ELISA). It counts as cell-based, human. (An ELISA detects its analyte on a solid surface through an enzyme-linked reagent.)
For the next test, the system named is SK-MEL5. Nature of the test: Inhibition of tumor cell line proliferation (Table 3), SK-MEL5. The test is classed as cell-based. As to conditions: SK-MEL-5; SK-MEL5, Human melanoma cells.
The next test deals with 4T1. Nature of the test: Inhibition of tumor cell line proliferation (Table 3), 4T1. The test is classed as cell-based. As to conditions: 4T1, Mouse breast cancer cells.
The subject of test [3] is lymphoma Raji-hClaudin 18.2 cells. Nature of the test: Inhibition of Raji-hClaudin 18.2 cell proliferation (CTG assay). It counts as cell-based. As for the experimental part: Raji-hClaudin 18.2 cells (provided by Elpiscience) were cultured at 37°C, 5% CO2 and 95% humidity in RPMI 1640 + 10% FBS (ExCell Bio, Cat. No. #FND500) + 10 ug/mL Blasticidin (Beyotime, Cat. No. #ST-018), the cells in logarithmic growth phase were harvested and counted, and cell viability was measured using Countstar automated cell counter based on classical trypan blue staining principle to ensure that the cell viability was above 90%. The cell concentration was adjusted, 135 µL of cell suspension was added into 96 well clear flat bottom black wall plate (Corning, Cat. No. #3904), 10000/well, and the cells were incubated in 96 well plate at 37°C and 5% CO2.
The cells in the 96 well plates that had been dosed were incubated at 37°C, 5% CO2 for 5 days before performing CTG assay. The plate was equilibrated to room temperature for 30 min and CTG Reagent (CellTiter-Glo® Luminescent Cell Viability Assay (Promega, Cat. No. #G7573) was melt, 50 µL of CTG Solution was added to each well, and shaked on an orbital shaker for 2 min to lyse the cells. The plate was left at room temperature for 10 min to stabilize the cold light signal and the cold light value was read (EnVision ® Multifunctional Plate Reader, PerkinElmer#2105). [formula] […]

Where a name gives a salt, the structure may show the parent alone.

Consider `Nc1nc2c(ncn2[C@@H]2O[C@@H]3CO[P@@](=O)(S)O[C@H]4[C@H](F)[C@H](n5cnc6c(N)nc(Cl)nc65)O[C@@H]4CO[P@@](=O)(S)O[C@@H]2[C@@H]3O)c(=O)[nH]1` [CDN-3, (2',3')-cyclo-(Rp,Rp)-[2'-O-thiophosphodiester-guanosine]-[3'-O-thiophosphodiester-2-chloro-2'-deoxy-2'-fluoro-beta-adenosine]diammonium salt], for which, in [1], the “inhibitory effects on NCI-N87 cell proliferation (in words)” value is given as “strong inhibitory effects”. Moreover, the IC50 in [1] (Homo sapiens, 120 h, NCI-N87, 5 days incubation, top concentration 600 nM) came out at 209 nM; in the test with A375 it was 206 nM; in the test with B16F10, 8700 nM; in the test on Daudi, 423 nM; in the test on A20, 32 nM; in the test with FaDu, 499 nM. The IC50 was determined as 1020 nM in the test on MC38; 982 nM in the test with H22; 505 nM in the test with SK-MEL5; 2270 nM in the test with 4T1; 131 nM in test [3] (120 h, Raji-hClaudin 18.2, 5 days incubation, top concentration 600 nM). Also, the “growth inhibition rates of left tumors” value with CT26 cells is listed as 91.2%. Besides, the “Tumor Volume (mm^3, Day 21)” value in test [2] (i.t., day 0, 4, 7) came to 540 ± 47 mm^3; in test [2] (i.v., day0) it was 723 ± 140 mm^3. Moreover, the “Tumor growth inhibition (TGI)” value is listed as 39% in test [2] (i.t., day 0, 4, 7) and 10% in test [2] (i.v., day0). Further, the “Rate of complete tumor regression (TV = 0 mm^3)” value in test [2] (i.t., day 0, 4, 7) is reported as 0% (0/5); in test [2] (i.v., day0) it was 0% (0/5). In addition, the “STING agonist activity (in words)” value in the test on THP-1 cells (EC50 stronger than 2',3'-cGAMP, comparable to ADU-S100) is recorded as “significant STING agonist activity”. Moreover, the EC50 with THP-1 cells (Homo sapiens, THP-1, 24 h, read-out: THP-1 activity) is 1000 to 10000 nM. Moreover, the “inhibition effects on Raji-hClaudin 18.2 cell proliferation (in words)” value in [3] is on record as “strong inhibition effects”.

As a reminder, the IC50 is the point on the concentration scale where inhibition reaches its midpoint. A low value points to inhibition by little substance.
